Experimental data: PMC7329864, “Role of water in cyclooxygenase catalysis and design of anti-inflammatory agents targeting two sites of the enzyme” (Scientific Reports, 2020)
pIC50: −log10 of the molar value. Entries after “also recorded” stand apart in the source; their conditions may differ. Read-outs that look alike come from different tables or passages of the source.

Experiments:
wt COX-2 = target: T1, wt COX-2 (Homo sapiens, UniProt P35354); test: COX inhibitory enzyme immunoassay (COX-2); type: biochemical; details: for pIC50: enzyme immunoassay, screened at 10^–4–10^–8 M, average of 3 experiments, SD ± 0.5 µM; for SI (IC50(COX-1)/IC50 (COX-2): selectivity index COX-1/COX-2
T1 construct: purchased Cayman Chemical Co. item no; 560131
T1 sequence (P35354 18-604): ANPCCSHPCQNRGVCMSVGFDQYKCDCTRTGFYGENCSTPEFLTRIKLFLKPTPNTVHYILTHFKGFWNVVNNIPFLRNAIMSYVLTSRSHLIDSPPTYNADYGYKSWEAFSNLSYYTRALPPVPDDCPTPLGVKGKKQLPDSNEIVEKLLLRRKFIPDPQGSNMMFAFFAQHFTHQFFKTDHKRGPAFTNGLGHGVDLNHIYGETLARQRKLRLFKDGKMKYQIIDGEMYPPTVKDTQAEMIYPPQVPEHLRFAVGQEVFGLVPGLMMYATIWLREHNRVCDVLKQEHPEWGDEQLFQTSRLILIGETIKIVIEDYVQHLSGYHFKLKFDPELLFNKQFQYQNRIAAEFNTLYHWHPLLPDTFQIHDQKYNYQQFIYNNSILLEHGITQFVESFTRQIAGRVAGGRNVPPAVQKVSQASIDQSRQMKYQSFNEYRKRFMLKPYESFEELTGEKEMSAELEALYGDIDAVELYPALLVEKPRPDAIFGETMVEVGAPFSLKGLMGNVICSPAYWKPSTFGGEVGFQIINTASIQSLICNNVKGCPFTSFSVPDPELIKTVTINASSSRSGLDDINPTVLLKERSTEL
Experimental: (§1) All the compounds of Fig. 9 were screened for COX-1/2 inhibitory activity in triplicate at 10^–4–10^–8 M concentration by performing enzyme immunoassays. The activity of the compounds was quantified in terms of amount of prostaglandins produced by the enzymes in the presence of different concentrations of the compound.
(§2) For studying the COX-1, COX-2 inhibitory activities of the compounds, various reagents were prepared as per the protocol of the assays. The compounds were screened in triplicate at 10^–4–10^–8 M concentration using the procedure as described in the previous report.

COX-1 = target: T2, COX-1 (Ovis aries, UniProt P05979); test: COX inhibitory enzyme immunoassay (COX-1); type: biochemical
T2 construct: purchased Cayman Chemical Co. item no; 560131
T2 sequence (P05979 25-600): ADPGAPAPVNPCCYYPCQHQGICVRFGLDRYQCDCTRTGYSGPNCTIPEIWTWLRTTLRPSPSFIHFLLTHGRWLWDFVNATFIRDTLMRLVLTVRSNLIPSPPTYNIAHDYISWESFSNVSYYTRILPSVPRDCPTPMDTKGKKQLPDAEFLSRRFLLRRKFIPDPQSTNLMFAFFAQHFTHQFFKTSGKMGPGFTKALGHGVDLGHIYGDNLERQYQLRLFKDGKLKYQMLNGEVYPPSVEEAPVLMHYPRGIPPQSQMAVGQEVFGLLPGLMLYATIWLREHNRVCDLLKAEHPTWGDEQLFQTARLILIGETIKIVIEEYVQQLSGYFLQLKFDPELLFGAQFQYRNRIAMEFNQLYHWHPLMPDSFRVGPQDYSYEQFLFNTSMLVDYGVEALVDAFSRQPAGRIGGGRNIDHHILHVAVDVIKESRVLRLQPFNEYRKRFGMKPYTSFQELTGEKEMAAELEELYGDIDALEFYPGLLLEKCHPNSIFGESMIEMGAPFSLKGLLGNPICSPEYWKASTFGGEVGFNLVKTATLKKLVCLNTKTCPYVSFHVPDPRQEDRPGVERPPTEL
Experimental: as §1, §2

COX-2 = target: T3, COX-2 (Homo sapiens, UniProt P35354); test: UV-Vis and fluorescence studies of interaction with COX-2; type: binding; details: addition of COX-2 in Tris–HCl buffer pH 7.25 to solution of compound
T3 sequence (P35354 18-604): T1 sequence (P35354 18-604)
Source text: In order to support in-silico experiments, the interactions of 1, 13d and 15d with COX-2 were checked with UV–vis and fluorescence spectral techniques. […] The appearance of level-off in the visible region (500–700 nm) was attributed to the Mie scattering due to the formation of aggregates. […] Corroborating the results of molecular modelling studies, the changes in the UV–Vis spectra as well as the fluorescence spectrum of the compound on addition of COX-2 probably occurred due to the HOMO–LUMO interactions between 1 and the enzyme (Figure S26). The linear Stern–Volmer plot of decrease in fluorescence intensity at 567 nm on increasing COX-2 concentration gave Stern–Volmer constant Ksv 3.30 × 10^4 M^-1. The detection limit of the compound for COX-2 was 0.02 nM (Figure S26C,D).
In order to support in-silico experiments, the interactions of 1, 13d and 15d with COX-2 were checked with UV-vis and fluorescence spectral techniques. […] The appearance of level-off in the visible region (500-700 nm) was attributed to the Mie scattering due to the formation of aggregates. […] Corroborating the results of molecular modelling studies, the changes in the UV-Vis spectra as well as the fluorescence spectrum of the compound on addition of COX-2 probably occurred due to the HOMO-LUMO interactions between 1 and the enzyme (Figure S27). The linear Stern-Volmer plot of decrease in fluorescence intensity at 567 nm on increasing COX-2 concentration gave Stern-Volmer constant Ksv 3.30x10^4 M^-1. The detection limit of the compound for COX-2 was 0.02 nM (Figure 27C, 27D).

[1] = enzyme immunoassay, screened at 10^–4–10^–8 M, average of 3 experiments, SD ± 0.5 µM, read-out: IC50 COX-1

SMILES | pIC50 (wt COX-2) | SI (IC50(COX-1)/IC50 (COX-2) (wt COX-2) | pIC50 (COX-1; [1]) | pIC50 (COX-1) | decrease in fluorescence intensity (quenching) in the presence of COX-2 (COX-2)
Cn1cc(/C=C2\C(=O)N(CCCCCn3c4ccccc4c(=O)c4ccccc43)c3ccccc32)c2ccccc21 [Compound 6, (Z)-10-(5-(3-((1-Methyl-1H-indol-3-yl)methylene)-2-oxoindolin-1-yl)pentyl)acridin-9(10H)-one] | 6.46 | 160 | 4.22 |  | 
Cn1cc(/C=C2\C(=O)N(CCCn3c4ccccc4c(=O)c4ccccc43)c3ccccc32)c2ccccc21 [Compound 7, (Z)-10-(3-(3-((1-methyl-1H-indol-3-yl)methylene)-2-oxoindolin-1-yl)propyl)acridin-9(10H)-one] | 4.66 | > 4.5 | < 4.00 |  | 
COc1cc(/C=C2\C(=O)N(CCCCCCn3c4ccccc4c(=O)c4ccccc43)c3ccccc32)cc(OC)c1O [Compound 8, (Z)-10-(6-(3-(4-Hydroxy-3,5-dimethoxybenzylidene)-2-oxoindolin-1-yl)hexyl)acridin-9(10H)-one] | 6.92 | 400 | 4.32 |  | 
O=C1NC(=O)C(=Cc2cn(CCCCCn3c4ccccc4c(=O)c4ccccc43)c3ccccc23)C(=O)N1 [Compound 2, 5-((1-(5-(9-Oxoacridin-10(9H)-yl)pentyl)-1H-indol-3-yl)methylene)pyrimidine-2,4,6(1H, 3H, 5H)-trione] | 7.00 | 400 |  | 4.40 | 
COc1cc(/C=C2\C(=O)N(CCCCCn3c4ccccc4c(=O)c4ccccc43)c3ccccc32)cc(OC)c1O [Compound 9, (Z)-10-(5-(3-(4-Hydroxy-3,5-dimethoxybenzylidene)-2-oxoindolin-1-yl)pentyl)acridin-9(10H)-one] | 6.64 | 250 | 4.28 |  | 
O=C1NC(=O)C(=Cc2cn(CCCn3c4ccccc4c(=O)c4ccccc43)c3ccccc23)C(=O)N1 [Compound 3, 5-((1-(3-(9-Oxoacridin-10(9H)-yl)propyl)-1H-indol-3-yl)methylene)pyrimidine-2,4,6 (1H, 3H, 5H)-trione] | 5.00 | > 10 |  | < 4.00 | 
Cn1cc(/C=C2\C(=O)N(CCCCCCn3c4ccccc4c(=O)c4ccccc43)c3ccccc32)c2ccccc21 [Compound 5, (Z)-10-(6-(3-((1-Methyl-1H-indol-3-yl)methylene)-2-oxoindolin-1-yl)hexyl)acridin-9(10H)-one] | 6.82 | 350 | 4.28 |  | 
COc1cc(/C=C2\C(=O)N(CCCn3c4ccccc4c(=O)c4ccccc43)c3ccccc32)cc(OC)c1O [Compound 10, (Z)-10-(3-(3-(4-Hydroxy-3,5-dimethoxybenzylidene)-2-oxoindolin-1-yl)propyl)acridin-9(10H)-one] | 4.92 | > 8 | < 4.00 |  | 
CN1C(=O)C(=Cc2cn(CCCCCCn3c4ccccc4c(=O)c4ccccc43)c3ccccc23)C(=O)N(C)C1=O [Compound 4] | 5.67 | 15 |  | 4.48 | 
O=Cc1cn(CCCCCCn2c3ccccc3c(=O)c3ccccc32)c2ccccc12 [Compound 15d, 1-(6-(9-Oxoacridin-10(9H)-yl)hexyl)-1H-indole-3-carbaldehyde] | 4.63 | > 4 |  | < 4.00 | Small decrease; also recorded: much less
O=c1c2ccccc2n(CCCCCCBr)c2ccccc12 [Compound 13d, 10-(6-Bromohexyl)acridin-9(10H)-one] | 4.31 | > 2 | < 4.00 |  | Small decrease; also recorded: much less
